Data: US9328386B2, “Markers for susceptibility to an inhibitor of an Src-family kinase” (Evotec (München) GmbH, priority 2011, dated 2016)

What was measured:
H1666 NSCLC cell line = assay: Cellular growth inhibition (CellTiter Glo viability assay); format: cell-based; conditions: Homo sapiens
HCC4006 NSCLC cell line = assay: as above; format: cell-based; conditions: Homo sapiens
H2030 NSCLC cell line = assay: as above; format: cell-based; conditions: Homo sapiens
Calu6 NSCLC cell line = assay: as above; format: cell-based; conditions: Homo sapiens
H460 NSCLC cell line = assay: as above; format: cell-based; conditions: Homo sapiens
HCC366 NSCLC cell line = assay: as above; format: cell-based; conditions: Homo sapiens
HCC827 NSCLC cell line = assay: cells; conditions: Homo sapiens
H1648 NSCLC cell line = assay: Cellular growth inhibition (CellTiter Glo viability assay); format: cell-based; conditions: Homo sapiens
HCC2279 NSCLC cell line = assay: as above; format: cell-based; conditions: Homo sapiens
H2009 NSCLC cell line = assay: as above; format: cell-based; conditions: Homo sapiens
H157 NSCLC cell line = assay: as above; format: cell-based; conditions: Homo sapiens
PC9 NSCLC cell line = assay: as above; format: cell-based; conditions: Homo sapiens
HCC78 NSCLC cell line = assay: as above; format: cell-based; conditions: Homo sapiens
LouNH91 NSCLC cell line = assay: as above; format: cell-based; conditions: Homo sapiens
H1395 NSCLC cell line = assay: as above; format: cell-based; conditions: Homo sapiens
H2172 NSCLC cell line = assay: as above; format: cell-based; conditions: Homo sapiens
H322M NSCLC cell line = assay: as above; format: cell-based; conditions: Homo sapiens, NCI-H322M
H520 NSCLC cell line = assay: as above; format: cell-based; conditions: Homo sapiens
H2077 NSCLC cell line = assay: as above; format: cell-based; conditions: Homo sapiens
[1] = read-out: Sensitivity Bosutinib

Q: Which results are given for `COc1cc(Nc2c(C#N)cnc3cc(OCCCN4CCN(C)CC4)c(OC)cc23)c(Cl)cc1Cl` [bosutinib, 4-(2,4-dichloro-5-methoxyphenylamino)-6-methoxy-7-(3-(4-methylpiperazin-1-yl)propoxy)quinoline-3-carbonitrile]?
A: GI50 (H1666 NSCLC cell line; NCI-H1666, 96 h): 1080 nM; IC50 (H1666 NSCLC cell line; NCI-H1666, read-out: Sensitivity Bosutinib): < 1500 nM; GI50 (HCC4006 NSCLC cell line; HCC4006, 96 h): 120 nM; IC50 (HCC4006 NSCLC cell line; HCC4006, read-out: Sensitivity Bosutinib): < 1500 nM; GI50 (H2030 NSCLC cell line; NCI-H2030, 96 h): 896 nM; IC50 (H2030 NSCLC cell line; NCI-H2030, read-out: Sensitivity Bosutinib): < 1500 nM; GI50 (Calu6 NSCLC cell line; Calu-6, 96 h): 2130 nM; IC50 (Calu6 NSCLC cell line; Calu-6, read-out: Sensitivity Bosutinib): > 1500 nM; GI50 (H460 NSCLC cell line; NCI-H460, 96 h): 1370 nM; IC50 (H460 NSCLC cell line; NCI-H460, read-out: Sensitivity Bosutinib): < 1500 nM; GI50 (HCC366 NSCLC cell line; HCC366, 96 h): 1270 nM; IC50 (HCC366 NSCLC cell line; HCC366, read-out: Sensitivity Bosutinib): < 1500 nM; GI50 (HCC827 NSCLC cell line; HCC827, 96 h): 141 nM; IC50 (HCC827 NSCLC cell line; HCC827, read-out: Sensitivity Bosutinib): < 1500 nM; GI50 (H1648 NSCLC cell line; NCI-H1648, 96 h): 3720 nM; IC50 (H1648 NSCLC cell line; NCI-H1648, read-out: Sensitivity Bosutinib): > 1500 nM; GI50 (HCC2279 NSCLC cell line; 96 h): 3250 nM; IC50 (HCC2279 NSCLC cell line; [1]): > 1500 nM; GI50 (H2009 NSCLC cell line; NCI-H2009, 96 h): 2330 nM; IC50 (H2009 NSCLC cell line; NCI-H2009, read-out: Sensitivity Bosutinib): > 1500 nM; GI50 (H157 NSCLC cell line; NCI-H157, 96 h): 1810 nM; IC50 (H157 NSCLC cell line; NCI-H157, read-out: Sensitivity Bosutinib): > 1500 nM; GI50 (PC9 NSCLC cell line; 96 h): 234 nM; IC50 (PC9 NSCLC cell line; PC-9, read-out: Sensitivity Bosutinib): < 1500 nM; GI50 (HCC78 NSCLC cell line; HCC78, 96 h): 3040 nM; IC50 (HCC78 NSCLC cell line; HCC78, read-out: Sensitivity Bosutinib): > 1500 nM; GI50 (LouNH91 NSCLC cell line; LOU-NH91, 96 h): 186 nM; IC50 (LouNH91 NSCLC cell line; LOU-NH91, read-out: Sensitivity Bosutinib): < 1500 nM; GI50 (H1395 NSCLC cell line; NCI-H1395, 96 h): 4720 nM; IC50 (H1395 NSCLC cell line; NCI-H1395, read-out: Sensitivity Bosutinib): > 1500 nM; GI50 (H2172 NSCLC cell line; NCI-H2172, 96 h): 2590 nM; IC50 (H2172 NSCLC cell line; NCI-H2172, read-out: Sensitivity Bosutinib): > 1500 nM; GI50 (H322M NSCLC cell line; 96 h): 528 nM; IC50 (H322M NSCLC cell line; [1]): < 1500 nM; GI50 (H520 NSCLC cell line; NCI-H520, 96 h): 2640 nM; IC50 (H520 NSCLC cell line; NCI-H520, read-out: Sensitivity Bosutinib): > 1500 nM; GI50 (H2077 NSCLC cell line; 96 h): 3790 nM; IC50 (H2077 NSCLC cell line; [1]): > 1500 nM
